Measured values as given in ChEMBL document CHEMBL6182857, “Targeting biofilm formation in Candida albicans with halogenated pyrrolopyrimidine derivatives” (Eur J Med Chem, 2025).
Calls of active or inactive are those of the source. The rule behind the calls is not given here.

What was measured:
[1] = test system: Candida albicans; test: Antibiofilm activity against fluconazole-resistant Candida albicans DAY185 assessed as inhibition of biofilm formation at 50 ug/ml measured after 24 hrs by crystal violet staining based analysis relative to control; type: functional
[2] = test system: Candida albicans; test: Antibiofilm activity against fluconazole-resistant Candida albicans DAY185 assessed as inhibition of biofilm formation at 5 ug/ml measured after 24 hrs by crystal violet staining based analysis; type: functional, organism-based; settings: dose 5.0 µg/ml
[3] = test system: Candida albicans; test: Antibiofilm activity against fluconazole-resistant Candida albicans DAY185 assessed as inhibition of biofilm formation at 7 ug/ml measured after 24 hrs by crystal violet staining based analysis relative to control; type: functional
[4] = test system: Candida albicans; test: Antibiofilm activity against fluconazole-resistant Candida albicans DAY185 assessed as inhibition of biofilm formation at 10 to 20 ug/ml measured after 24 hrs by 2D/3D imaging analysis relative to control; type: functional; settings: dose 10-20 µg/ml, at 10 to 20 µg/mL
[5] = test system: Candida albicans; test: Antibiofilm activity against fluconazole-resistant Candida albicans DAY185 assessed as inhibition of biofilm formation at 5 ug/ml measured after 24 hrs by 2D/3D imaging analysis; type: functional, organism-based; settings: dose 5.0 µg/ml
[6] = test system: Candida albicans; test: Inhibition of yeast to hypha transition in fluconazole-resistant Candida albicans DAY185 assessed as decrease in cell aggregation at 5 to 20 ug/ml measured after 24 hrs by SEM analysis; type: functional, organism-based; settings: dose 5-20 µg/ml
[7] = test system: Candida albicans; test: Inhibition of yeast to hypha transition in fluconazole-resistant Candida albicans DAY185 assessed as decrease in germ tube formation at 5 to 20 ug/ml measured after 24 hrs by SEM analysis; type: functional, organism-based; settings: dose 5-20 µg/ml
[8] = test system: Candida albicans; test: Inhibition of yeast to hypha transition in fluconazole-resistant Candida albicans DAY185 assessed as decrease in filamentous growth at 5 to 20 ug/ml measured after 24 hrs by SEM analysis; type: functional, organism-based; settings: dose 5-20 µg/ml
[9] = test system: Candida albicans; test: Inhibition of yeast to hypha transition in fluconazole-resistant Candida albicans DAY185 assessed as decrease in hyphal development at >=10 ug/ml measured after 24 hrs by SEM analysis relative to control; type: functional; settings: dose >= 10 µg/ml
[10] = test system: Candida albicans; test: Inhibition of yeast to hypha transition in fluconazole-resistant Candida albicans DAY185 assessed as decrease in hyphal growth at 5 to 20 ug/ml measured after 24 hrs by SEM analysis; type: functional, organism-based; settings: dose 5-20 µg/ml
[11] = test system: Candida albicans; test: Inhibition of yeast to hypha transition in fluconazole-resistant Candida albicans DAY185 assessed as decrease in hyphal adhesion at 5 to 20 ug/ml measured after 24 hrs by SEM analysis; type: functional, organism-based; settings: dose 5-20 µg/ml
[12] = test system: Candida albicans; test: Downregulation of ALS3 mRNA level in fluconazole-resistant Candida albicans DAY185 assessed as fold decrease at 50 ug/ml incubated for 6 hrs by qRT-PCR analysis relative to control; type: functional; settings: dose 50.0 µg/ml
[13] = test system: Candida albicans; test: Downregulation of HWP1 mRNA level in fluconazole-resistant Candida albicans DAY185 assessed as fold decrease at 50 ug/ml incubated for 6 hrs by qRT-PCR analysis relative to control; type: functional; settings: dose 50.0 µg/ml
[14] = test system: Candida albicans; test: Upregulation of YWP1 mRNA level in fluconazole-resistant Candida albicans DAY185 assessed as fold increase at 50 ug/ml incubated for 6 hrs by qRT-PCR analysis relative to control; type: functional; settings: dose 50.0 µg/ml
[15] = test system: Candida albicans; test: Downregulation of ECE1 mRNA level in fluconazole-resistant Candida albicans DAY185 assessed as fold decrease at 50 ug/ml incubated for 6 hrs by qRT-PCR analysis relative to control; type: functional; settings: dose 50.0 µg/ml
[16] = test system: Candida albicans; test: Upregulation of CDR11 mRNA level in fluconazole-resistant Candida albicans DAY185 assessed as fold increase at 50 ug/ml incubated for 6 hrs by qRT-PCR analysis relative to control; type: functional; settings: dose 50.0 µg/ml
[17] = test system: Candida albicans; test: Upregulation of GST3 mRNA level in fluconazole-resistant Candida albicans DAY185 assessed as fold increase at 50 ug/ml incubated for 6 hrs by qRT-PCR analysis relative to control; type: functional; settings: dose 50.0 µg/ml
[18] = test system: Candida albicans; test: Upregulation of IFD6 mRNA level in fluconazole-resistant Candida albicans DAY185 assessed as fold increase at 50 ug/ml incubated for 6 hrs by qRT-PCR analysis relative to control; type: functional; settings: dose 50.0 µg/ml
[19] = test system: Candida albicans; test: Upregulation of UCF1 mRNA level in fluconazole-resistant Candida albicans DAY185 assessed as fold increase at 50 ug/ml incubated for 6 hrs by qRT-PCR analysis relative to control; type: functional; settings: dose 50.0 µg/ml
[20] = test system: Candida albicans; test: Upregulation of ZAP1 mRNA level in fluconazole-resistant Candida albicans DAY185 assessed as fold increase at 50 ug/ml incubated for 6 hrs by qRT-PCR analysis relative to control; type: functional; settings: dose 50.0 µg/ml
[21] = test system: Candida albicans; test: Effect on UME6 mRNA level in fluconazole-resistant Candida albicans DAY185 at 50 ug/ml incubated for 6 hrs by qRT-PCR analysis; type: functional; settings: dose 50.0 µg/ml
[22] = test system: Brassica rapa; test: Toxicity in Brassica rapa assessed as seed germination rate at 10 to 100 ug/ml treated for 4 days relative to control; type: organism-based; settings: in vivo, 96 h, at 10 to 100 µg/mL, dose 10-100 µg/ml, time 4 day
[23] = Toxicity in Caenorhabditis elegans assessed as nematode survival at higher concentrations treated for 10 days; settings: 240 h, time 10 day
[24] = test system: Candida albicans; test: Antibiofilm activity against fluconazole-resistant Candida albicans DAY185 assessed as inhibition of biofilm formation on bio-compatible PLGA surface coated with compound at 5 to 10 ug/ml incubated for 24 hrs by CLSM analysis; type: functional, organism-based; settings: dose 5-10 µg/ml
[25] = test system: Candida albicans; test: Antibiofilm activity against fluconazole-resistant Candida albicans DAY185 assessed as reduction in biofilm thickness on bio-compatible PLGA surface coated with compound at 5 to 10 ug/ml incubated for 24 hrs by CLSM analysis; type: functional, organism-based; settings: dose 5-10 µg/ml
[26] = test system: Candida albicans; test: Antibiofilm activity against fluconazole-resistant Candida albicans DAY185 assessed as reduction in overall biofilm mass on bio-compatible PLGA surface coated with compound at 5 to 10 ug/ml incubated for 24 hrs by CLSM analysis; type: functional, organism-based; settings: dose 5-10 µg/ml
[27] = test system: Candida albicans; test: Antibiofilm activity against fluconazole-resistant Candida albicans DAY185 assessed as reduction in biofilm mass on bio-compatible PLGA surface coated with compound incubated for 24 hrs by COMSTAT analysis; type: functional, organism-based
[28] = test system: Candida albicans; test: Antibiofilm activity against fluconazole-resistant Candida albicans DAY185 assessed as reduction in mean biofilm thickness on bio-compatible PLGA surface coated with compound incubated for 24 hrs by COMSTAT analysis; type: functional, organism-based
[29] = test system: Candida albicans; test: Antibiofilm activity against fluconazole-resistant Candida albicans DAY185 assessed as reduction in substratum coverage on bio-compatible PLGA surface coated with compound at 5 ug/ml incubated for 24 hrs by COMSTAT analysis; type: functional, organism-based; settings: dose 5.0 µg/ml
[30] = test system: Candida albicans; test: Additive antibiofilm activity against fluconazole-resistant Candida albicans DAY185 assessed as inhibition of biofilm formation at 5 ug/ml measured after 24 hrs in presence of AMB by crystal violet staining based analysis relative to control; type: functional, organism-based; settings: dose 5.0 µg/ml
[31] = test system: Candida albicans; test: Antibiofilm activity against Candida albicans ATCC 10231 assessed as inhibition of biofilm formation by crystal violet staining based analysis; type: functional, organism-based
[32] = test system: Candida albicans; test: Additive antibiofilm activity against fluconazole-resistant Candida albicans DAY185 assessed as inhibition of biofilm formation at 5 ug/ml measured after 24 hrs in presence of BTZ by crystal violet staining based analysis relative to control; type: functional, organism-based; settings: dose 5.0 µg/ml
[33] = test system: Candida albicans; test: Antibiofilm activity against Candida albicans KCCM 12552 assessed as inhibition of biofilm formation by crystal violet staining based analysis; type: functional, organism-based
[34] = test system: [Candida] auris; test: Antibiofilm activity against Candida auris KCTC 17809 assessed as inhibition of biofilm formation by crystal violet staining based analysis; type: functional, organism-based; settings: Candidozyma auris
[35] = test system: [Candida] auris; test: Antibiofilm activity against Candida auris KCTC 17810 assessed as inhibition of biofilm formation by crystal violet staining based analysis; type: functional, organism-based; settings: Candidozyma auris

For Clc1nc(Cl)c2c(I)c[nH]c2n1, the inhibition at 50 µg/mL [1] was > 85%, the inhibition [2] was “Active” and the inhibition at 7 µg/mL [3] was 100%. For the same molecule, the “inhibition (INH)” value [4] was ~100%, the inhibition [5] was “Active” and the inhibition [6] was “Active”. For the same molecule, the inhibition [7] was “Active”, the inhibition [8] was “Active” and the “inhibition (INH)” value [9] was 100%. For the same molecule, the inhibition [10] was “Active”, the inhibition [11] was “Active” and the fold change (FC) [12] was 8. The fold change (FC) [13] was 57, the fold change (FC) [14] was 55 and the fold change (FC) [15] was 143. For the same molecule, the fold change (FC) [16] was 138, the fold change (FC) [17] was 58 and the fold change (FC) [18] was 82. The fold change (FC) [19] was 37, the fold change (FC) [20] was 10 and the Activity [21] was “No effect”. The Activity [22] was > 90%, the Activity [23] was “Toxic” and the inhibition [24] was “Active; Significant Effect Even At Lower Concentration”. The Activity [25] was “Active; More Pronounced Effects Were Observed At Higher Concentration”, the Activity [26] was “Active; More Pronounced Effects Were Observed At Higher Concentration” and the Activity [27] was “Dose-dependent-effect; Nearly Undetectable Levels Were Observed At 5 Ug/Ml”. For the same molecule, the Activity [28] was “Dose-dependent-effect; Nearly Undetectable Levels Were Observed At 5 Ug/Ml”, the Activity [29] was “Active” and the inhibition [30] was “Active”. For the same molecule, the inhibition [31] was “Dose-dependent-effect”, the inhibition [32] was “Active” and the inhibition [33] was “Dose-dependent-effect”. For the same molecule, the inhibition [34] was “Dose-dependent-effect” and the inhibition [35] was “Dose-dependent-effect”.
